Laboratory results taken from ChEMBL document CHEMBL5247656, “Discovery of a Potent, Cooperative, and Selective SOS1 PROTAC ZZ151 with In Vivo Antitumor Efficacy in KRAS-Mutant Cancers” (J Med Chem, 2023).
Activity calls are given as the source filed them. The calls are words filed in the database; no cut-off is given here.

Key:
[1] = target: T1, von Hippel-Lindau disease tumor suppressor/Son of sevenless homolog 1 (Homo sapiens) (UniProt Q07889+P40337); experiment: PROTAC activity at VHL/SOS1 in human NCI-H358 cells assessed as induction of SOS1 protein degradation at 1.0 uM incubated for 24 hrs by Immunoblot analysis relative to control; format: cell-based
[2] = target: T1, von Hippel-Lindau disease tumor suppressor/Son of sevenless homolog 1 (Homo sapiens); experiment: PROTAC activity at VHL/SOS1 in human NCI-H358 cells assessed as induction of SOS1 protein degradation at 0.1 uM incubated for 24 hrs by Immunoblot analysis relative to control; format: cell-based
[3] = target: von Hippel-Lindau disease tumor suppressor/Son of sevenless homolog 1/Elongin-B/Elongin-C (Homo sapiens) (UniProt Q07889+P40337+Q15370+Q15369); experiment: Binding affinity to GST tagged human SOS1(564 to 1049 residues)-6his tagged human VHL (54 to 213 residues)-human ElonginC (17 to 112 residues)-human ElonginB (1 to 104 residues) expressed in Escherichia coli BL21 (DE3) cells assessed as ternary complex formation by measuring maximal HTRF signals incubated for 15 mins by HTRF analysis
[4] = target: T2, Son of sevenless homolog 1 (Homo sapiens) (UniProt Q07889); experiment: Co-operativity factor, ratio of Kd for binding affinity to GST-tagged human SOS1 (564 to 1049 reisudes) expressed in Escherichia coli BL21 (DE3) cells assessed as binary complex formation to Kd for binding affinity to GST-tagged human SOS1 (564 to 1049 residues) expressed in Escherichia coli BL21 (DE3) cells assessed as ternary complex formation in the presence of 6His tagged human VCB
T2 sequence (whole entry): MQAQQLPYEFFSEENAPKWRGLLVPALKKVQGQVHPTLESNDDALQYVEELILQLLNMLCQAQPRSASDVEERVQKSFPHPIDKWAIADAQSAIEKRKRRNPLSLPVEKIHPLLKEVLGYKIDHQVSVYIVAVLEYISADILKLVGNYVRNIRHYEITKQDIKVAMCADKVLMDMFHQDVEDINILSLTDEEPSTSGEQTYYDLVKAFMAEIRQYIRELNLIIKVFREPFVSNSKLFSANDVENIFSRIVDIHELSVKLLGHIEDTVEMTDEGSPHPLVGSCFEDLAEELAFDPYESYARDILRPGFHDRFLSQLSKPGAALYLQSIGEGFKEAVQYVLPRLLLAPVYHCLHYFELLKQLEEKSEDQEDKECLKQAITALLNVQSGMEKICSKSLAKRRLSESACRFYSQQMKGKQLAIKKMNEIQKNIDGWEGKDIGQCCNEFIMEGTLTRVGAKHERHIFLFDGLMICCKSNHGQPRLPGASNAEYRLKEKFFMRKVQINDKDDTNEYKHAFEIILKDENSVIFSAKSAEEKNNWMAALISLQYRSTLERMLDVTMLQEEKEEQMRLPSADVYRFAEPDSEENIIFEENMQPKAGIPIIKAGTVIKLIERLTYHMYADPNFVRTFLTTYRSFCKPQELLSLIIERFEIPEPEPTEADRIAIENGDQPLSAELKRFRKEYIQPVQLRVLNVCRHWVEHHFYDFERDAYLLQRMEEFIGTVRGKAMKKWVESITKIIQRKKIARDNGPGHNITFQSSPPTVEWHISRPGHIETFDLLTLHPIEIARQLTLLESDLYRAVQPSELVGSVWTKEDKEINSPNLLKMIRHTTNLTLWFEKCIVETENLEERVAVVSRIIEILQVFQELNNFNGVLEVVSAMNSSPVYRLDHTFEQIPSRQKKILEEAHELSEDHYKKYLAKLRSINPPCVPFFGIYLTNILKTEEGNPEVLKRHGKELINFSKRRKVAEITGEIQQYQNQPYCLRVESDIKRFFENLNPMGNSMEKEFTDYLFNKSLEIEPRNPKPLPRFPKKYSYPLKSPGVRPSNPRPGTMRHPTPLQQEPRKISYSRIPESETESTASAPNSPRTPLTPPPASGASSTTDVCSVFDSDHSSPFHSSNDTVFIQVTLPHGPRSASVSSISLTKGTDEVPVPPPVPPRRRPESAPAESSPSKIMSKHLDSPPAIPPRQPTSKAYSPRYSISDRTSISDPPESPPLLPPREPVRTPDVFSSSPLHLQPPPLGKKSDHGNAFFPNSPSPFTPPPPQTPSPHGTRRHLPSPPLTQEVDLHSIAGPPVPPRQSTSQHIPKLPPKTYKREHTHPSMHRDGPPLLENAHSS

[5] = target: T1, von Hippel-Lindau disease tumor suppressor/Son of sevenless homolog 1 (Homo sapiens); experiment: PROTAC activity at VHL/SOS1 in human NCI-H358 cells assessed as induction of SOS1 protein degradation by measuring maximal efficacy at 2 to 2000 nM incubated for 24 hrs by Immunoblot analysis relative to control; format: cell-based; details: dose 2-2000 nM
[6] = target: T3, Son of sevenless homolog 1 (Homo sapiens, UniProt Q07889); experiment: (§1) Binding affinity to GST-tagged human SOS1 (564 to 1049 residues) expressed in Escherichia coli BL21 (DE3) cells assessed as binary complex formation by measuring dissociation constant incubated for 15 mins by fluorescence polarization-based displacement assay
T3 sequence (Q07889 whole entry): T2 sequence (whole entry)

[7] = target: T3, Son of sevenless homolog 1; experiment: as §1, with “ternary” for “binary”, “mins in the presence of 6His tagged human VCB” for “mins”
[8] = target: von Hippel-Lindau disease tumor suppressor/Son of sevenless homolog 1 (Homo sapiens, UniProt P40337+Q07889); experiment: PROTAC activity at VHL/SOS1 in human NCI-H358 cells assessed as induction of SOS1 protein degradation incubated for 24 hrs by Immunoblot analysis; format: cell-based
PANC-1 = experiment: Antiproliferative activity against human PANC-1 cells harboring KRAS G12D mutant assessed as inhibition of cell proliferation incubated for 7 days by CellTiterGlo-3D proliferation assay; format: functional, cell-based; details: PANC-1, 168 h
NCI-H358 = experiment: Antiproliferative activity against human NCI-H358 cells harboring KRAS G12C mutant assessed as inhibition of cell proliferation incubated for 7 days by CellTiterGlo-3D proliferation assay; format: functional, cell-based; details: NCI-H358, 168 h
MIA PaCa-2 = experiment: Antiproliferative activity against human MIA PaCa-2 cells harboring KRAS G12C mutant assessed as inhibition of cell proliferation incubated for 7 days by CellTiterGlo-3D proliferation assay; format: functional, cell-based; details: MIA PaCa-2, 168 h
[9] = target: T2, Son of sevenless homolog 1 (Homo sapiens); experiment: Induction of SOS1 degradation in human NCI-H358 cells at 0.1 to 1 uM incubated for 24 hrs by immunoblot analysis; format: cell-based; details: dose 0.1-1 µM
ASPC1 = experiment: Antiproliferative activity against human ASPC1 cells harboring KRAS G12D mutant assessed as inhibition of cell proliferation incubated for 7 days by CellTiterGlo-3D proliferation assay; format: functional, cell-based; details: ASPC1, 168 h
LoVo = experiment: Antiproliferative activity against human LoVo cells harboring KRAS G13D mutant assessed as inhibition of cell proliferation incubated for 7 days by CellTiterGlo-3D proliferation assay; format: functional, cell-based; details: 168 h
SW-620 = experiment: Antiproliferative activity against human SW620 cells harboring KRAS G12V mutant assessed as inhibition of cell proliferation incubated for 7 days by CellTiterGlo-3D proliferation assay; format: functional, cell-based; details: SW-620, 168 h
A549 = experiment: Antiproliferative activity against human A549 cells harboring KRAS G12S mutant assessed as inhibition of cell proliferation incubated for 7 days by CellTiterGlo-3D proliferation assay; format: functional, cell-based; details: A549, 168 h

Compound | Activity [1] [%] | Activity [2] [%] | Activity [3] | Ratio [4] | Emax [5] [%] | Kd [6] [nM] | Kd [7] [nM] | other results
COc1cc2nc(C)nc(N[C@H](C)c3cc(N)cc(C(F)(F)F)c3)c2cc1C1CCN(CCCCCC(=O)N[C@H](C(=O)N2C[C@H](O)C[C@H]2C(=O)N[C@@H](C)c2ccc(-c3scnc3C)cc2)C(C)(C)C)CC1 | 2.02 | 3.04 | – | – | – | – | – | –
COc1cc2nc(C)nc(N[C@H](C)c3cc(N)cc(C(F)(F)F)c3)c2cc1C1CCN(CCCCCCC(=O)N[C@H](C(=O)N2C[C@H](O)C[C@H]2C(=O)N[C@@H](C)c2ccc(-c3scnc3C)cc2)C(C)(C)C)CC1 | 10.7 | 9.77 | inactive | 2.7 | 9.1 | 44.2 | 16.3 | –
COc1cc2nc(C)nc(N[C@H](C)c3cc(N)cc(C(F)(F)F)c3)c2cc1C1CCN(CCCCCCCC(=O)N[C@H](C(=O)N2C[C@H](O)C[C@H]2C(=O)N[C@@H](C)c2ccc(-c3scnc3C)cc2)C(C)(C)C)CC1 | 7.32 | 9.25 | – | – | – | – | – | –
COc1cc2nc(C)nc(N[C@H](C)c3cc(N)cc(C(F)(F)F)c3)c2cc1C1CCN(C(=O)CCCCCCC(=O)N[C@H](C(=O)N2C[C@H](O)C[C@H]2C(=O)N[C@@H](C)c2ccc(-c3scnc3C)cc2)C(C)(C)C)CC1 | 47.3 | 25.2 | inactive | 2.9 | 39.7 | 78.6 | 27.1 | –
COc1cc2nc(C)nc(N[C@H](C)c3cc(N)cc(C(F)(F)F)c3)c2cc1C1CCN(C(=O)CCCCCCCC(=O)N[C@H](C(=O)N2C[C@H](O)C[C@H]2C(=O)N[C@@H](C)c2ccc(-c3scnc3C)cc2)C(C)(C)C)CC1 | 80.2 | 31.4 | – | – | – | – | – | –
COc1cc2nc(C)nc(N[C@H](C)c3cc(N)cc(C(F)(F)F)c3)c2cc1C1CCN(C(=O)CCCCCCCCC(=O)N[C@H](C(=O)N2C[C@H](O)C[C@H]2C(=O)N[C@@H](C)c2ccc(-c3scnc3C)cc2)C(C)(C)C)CC1 | 0 | 0 | – | – | – | – | – | –
COc1cc2nc(C)nc(N[C@H](C)c3cc(N)cc(C(F)(F)F)c3)c2cc1C1CCN(C(=O)CCCCCCCCCC(=O)N[C@H](C(=O)N2C[C@H](O)C[C@H]2C(=O)N[C@@H](C)c2ccc(-c3scnc3C)cc2)C(C)(C)C)CC1 | 37.9 | 9.65 | – | – | – | – | – | –
COc1cc2nc(C)nc(NC(C)c3cc(N)cc(C(F)(F)F)c3)c2cc1C1CCN(C(C)=O)CC1 (stereo not drawn) | – | – | inactive | – | – | 26.9 | 26.5 | IC50 (PANC-1): 23.1 nM; IC50 (NCI-H358): 74.6 nM; IC50 (MIA PaCa-2): 48.5 nM; Activity [9]: inactive; IC50 (ASPC1): 36.7 nM; IC50 (LoVo): 79.8 nM; IC50 (SW-620): 36.3 nM; IC50 (A549): 134 nM

Continued, in another order:

Activity [1] [%] | Activity [2] [%] | Activity [3] | Ratio [4] | Emax [5] [%] | Kd [6] [nM] | Kd [7] [nM] | Compound | other results
11.7 | 9.28 | – | – | – | – | – | COc1cc2nc(C)nc(N[C@H](C)c3cc(N)cc(C(F)(F)F)c3)c2cc1C1CCN(C(=O)CCCC(=O)N[C@H](C(=O)N2C[C@H](O)C[C@H]2C(=O)N[C@@H](C)c2ccc(-c3scnc3C)cc2)C(C)(C)C)CC1 | –
11.2 | 9.8 | – | – | – | – | – | COc1cc2nc(C)nc(N[C@H](C)c3cc(N)cc(C(F)(F)F)c3)c2cc1C1CCN(C(=O)C2CN(CCC(=O)N[C@H](C(=O)N3C[C@H](O)C[C@H]3C(=O)N[C@@H](C)c3ccc(-c4scnc4C)cc3)C(C)(C)C)C2)CC1 | –
22.6 | 21.7 | – | – | – | – | – | COc1cc2nc(C)nc(N[C@H](C)c3cc(N)cc(C(F)(F)F)c3)c2cc1C1CCN(C(=O)C2CCN(CCC(=O)N[C@H](C(=O)N3C[C@H](O)C[C@H]3C(=O)N[C@@H](C)c3ccc(-c4scnc4C)cc3)C(C)(C)C)CC2)CC1 | –
8.52 | 3.24 | – | – | – | – | – | COc1cc2nc(C)nc(N[C@H](C)c3cc(N)cc(C(F)(F)F)c3)c2cc1C1CCN(C(=O)[C@H]2CC[C@H](C(=O)N[C@H](C(=O)N3C[C@H](O)C[C@H]3C(=O)N[C@@H](C)c3ccc(-c4scnc4C)cc3)C(C)(C)C)CC2)CC1 | –
6.52 | 1.36 | inactive | 2.3 | 20.9 | 63.5 | 27.8 | COc1cc2nc(C)nc(N[C@H](C)c3cc(N)cc(C(F)(F)F)c3)c2cc1C1CCN(C(=O)CCCOCC(=O)N[C@H](C(=O)N2C[C@H](O)C[C@H]2C(=O)N[C@@H](C)c2ccc(-c3scnc3C)cc2)C(C)(C)C)CC1 | –
37 | 16.4 | inactive | 2.8 | 42.9 | 75.7 | 26.7 | COc1cc2nc(C)nc(N[C@H](C)c3cc(N)cc(C(F)(F)F)c3)c2cc1C1CCN(C(=O)CCCCC(=O)N[C@H](C(=O)N2C[C@H](O)C[C@H]2C(=O)N[C@@H](C)c2ccc(-c3scnc3C)cc2)C(C)(C)C)CC1 | –
62.5 | 19.6 | – | – | – | – | – | COc1cc2nc(C)nc(N[C@H](C)c3cc(N)cc(C(F)(F)F)c3)c2cc1C1CCN(C(=O)COCCOCC(=O)N[C@H](C(=O)N2C[C@H](O)C[C@H]2C(=O)N[C@@H](C)c2ccc(-c3scnc3C)cc2)C(C)(C)C)CC1 | –
90.2 | 54.6 | – | 8.9 | 97.9 | 155 | 17.4 | COc1cc2nc(C)nc(N[C@H](C)c3cc(N)cc(C(F)(F)F)c3)c2cc1C1CCN(C(=O)COCCCC(=O)N[C@H](C(=O)N2C[C@H](O)C[C@H]2C(=O)N[C@@H](C)c2ccc(-c3scnc3C)cc2)C(C)(C)C)CC1 | EC50 [8]: 49.3 nM
22.9 | 0 | inactive | 2.8 | 37.6 | 95.4 | 33.6 | COc1cc2nc(C)nc(N[C@H](C)c3cc(N)cc(C(F)(F)F)c3)c2cc1C1CCN(C(=O)CCOCCC(=O)N[C@H](C(=O)N2C[C@H](O)C[C@H]2C(=O)N[C@@H](C)c2ccc(-c3scnc3C)cc2)C(C)(C)C)CC1 | –
